Patent publication US6225478A, “Iridoid derivatives and neovascularization inhibitors containing the same as active ingredient” (Tsumura & Co., priority 1999, dated 2001)

What was measured:
[1] = tested on: human umbilical-vein endothelial cells (HUVEC); assay: Tube Formation Assay (TFA) Test, HUVEC in collagen gel; type: cell-based; details: Tables 75-83, 0.32 mM sample solution, method as for Compounds 1 through 60; for inhibition at 320 µM (stock): Homo sapiens, HUVEC, read-out: TFA Inhibition rate (%)
Method: Furthermore, the sample liquids of compounds used in the CPA and CMA tests were prepared in the manner described below. Firstly, after weighing out each compound, a calculated amount of DMSO was added. After dissolving the compound in the DMSO, phosphate buffered physiological saline (PBS (-)) was added to bring the sample concentration to 1 mg/ml in PBS (-). The amount of DMSO used to dissolve the compounds was adjusted in advance to that the concentration of DMSO at that time was 5%. The resulting liquids were diluted 10-fold with 5% DMSO-PBS (-) solution to prepare sample solutions having a concentration of 0.1 mg/ml. In the TFA test, 320 μl of the prepared 1 mg/ml sample solutions were removed followed by addition of 680 μl of PBS (-) to prepare samples having a concentration of […]. Moreover, 100 μl of this solution was removed followed by addition of 900 μl of PBS (-) to dilute 10-fold and prepare samples having a concentration of 1 μg/ml. P [Cell Proliferation Assay (CPA) Test]
To begin with, 8 volumes of Type 1-A cell matrix (manufactured by Gibco Co.), 1 volume of 10×M119, and 1 volume of reconstituted buffer [200 mM HEPES, 0.05 N sodium hydroxide, 260 mM sodium bicarbonate] were slowly mixed under cooling with ice while avoiding bubbling to form a collagen gel. This collagen gel was distributed in a NUNC 24-well plate at 310 μl/well followed by allowing to stand undisturbed for 2 hours at 37° C. to solidify the gel.
Next, the 7th subculture of HUVEC (1×10^5 cells/ml) obtained from the first generation in the same manner as above were disseminated at 500 μl/well. The cells were cultured for 2 hours at 37° C. to allow the cells to make contact with the collagen. After then removing the medium by aspiration, 50 μl of sample solution were added followed by addition of 310 μl/well of freshly prepared collagen gel and culturing for 1 hour and 10 minutes at 37° C. to solidify the double-layer gel.
1 ml/well of M-199 medium containing 20% FCS, 30 ng /ml of b-FGF and 0.1 μM PMA were added to the wells followed by culturing for 20 hours at 37° C. in the presence of 5% CO2.
Measurement of the lengths of the formed tubes was performed using the public domain NIH Image with a computer.
Evaluation was performed by calculating the inhibition rate (%) of tube formation according to the following formula.
Inhibition rate (%)=100-((formed tube length in presence of sample-formed tube length in presence of control (-))×100/(formed tube length in presence of control (+)-formed tube length in presence of control (-)))
(§1) Samples were prepared using the present compounds of Compound No. I-60 through I-315. More specifically, 32 μl of a 20 mM sample solution dissolved in dimethylsulfoxide (DMSO) were removed and brought to a volume of 1 ml with phosphate-buffered saline (PBS) to prepare a sample solution having a concentration of 0.32 mM (containing 3.2% DMSO).
The testing method used for these compounds was the same as that used for the compounds of Compound No. 1 through 60 previously described.

HUFEC = assay: Cell Migration Assay (CMA) Test, inhibitory rate with control (-) correction; type: cell-based, human; details: 125 μl of 0.32 mM sample solution in 4.0 ml medium, 80% or more = remarkable; for inhibition at 320 µM (stock): Homo sapiens, 24 h; for CMA Inhibition rate (%): 24 hours
Method: as §1
After disseminating the 7th subculture of […] obtained from the first generation at 4 ml/well (3.0×10^5 cells/well) in a collagen-coated 6-well plate (NUNC), the cells were cultured for 48 hours at 37° C. in the presence of 5% CO2. The cells reached nearly a completely confluent state as a result of this culturing.
A double-edged, disposable razor blade was divided into four sections, of which one of those sections was pinched between a pair of forceps. Using this piece of razor blade, the cell surface in the above confluent state was scraped off.
After washing the surface of the wells from which the cells had been scraped off with medium, 4.0 ml of fresh M199 (2+) medium were placed in the wells. 4.0 ml of M199 medium were added to the control (-) well.
125 μl of sample solution (0.32 mM, containing 3.2% dimethylsulfoxide) were added to the wells.
125 μl of PBS solution containing 3.2% dimethylsulfoxide were added to the control wells instead of sample. The cells were cultured for 24 hours at 37° C. in the presence of 5% CO2. After discarding the culture liquid, the cells were fixed for 30 minutes with methanol. Next, after […] the cells for 4 hours with Giemsa stain, the plates were washed with tap water and air dried.
Measurement of cell migration was performed by microscopically counting the number of cells that had newly migrated within the range of a 1 mm×1 mm block. […] The total number of cells counted in blocks 1 through 5 were then totaled to determine the overall total number of cells. Four fields were counted for each well.
Evaluation was performed determining the cell migration inhibitory rate (%) according to the following equation.
Inhibitory rate=100-((number of migrating cells to which sample was added-number of migrating cells of control (-))×100/(number of migrating cells of control (+)-number of migrating cells of control (-)))
If this inhibitory rate was 80% or more, cell migration was assessed as being remarkable.

SMILES: C[C@]12O[C@H]1C[C@@H]1C(C(=O)O)=CO[C@@H](OC(=O)NCCCl)[C@@H]12 [I-66]
- inhibition at 320 µM (stock) [1]: 19.7%
- inhibition at 320 µM (stock) (HUFEC): 30.5%

SMILES: COC(=O)C1=CO[C@@H](OC(=O)NCc2ccco2)[C@H]2[C@@H]1CC[C@@H]2C [I-215]
- inhibition at 320 µM (stock) [1]: 8.1%
- inhibition at 320 µM (stock) (HUFEC): 21.5%

SMILES: COC(=O)C1=COC[C@H]2[C@@H]1C[C@@H]1O[C@@]12COC(=O)NCCCl [I-291]
- inhibition at 320 µM (stock) [1]: 44.5%
- inhibition at 320 µM (stock) (HUFEC): 7%

SMILES: COC(=O)C1=CO[C@@H](OC(=O)NC(C)C)[C@@H]2C(C)=CC[C@H]12 [I-155]
- inhibition at 320 µM (stock) [1]: 45.7%
- inhibition at 320 µM (stock) (HUFEC): 19.9%

SMILES: COC(=O)C1=CO[C@@H](OC(=O)NCC2CC2)[C@@H]2C(C)=CC[C@H]12 [I-139]
- inhibition at 320 µM (stock) [1]: 25.6%
- inhibition at 320 µM (stock) (HUFEC): 9.7%

SMILES: COC(=O)C1=CO[C@@H](OC(=O)NCC(OC)OC)[C@H]2[C@@H]1CC[C@@H]2C [I-201]
- inhibition at 320 µM (stock) [1]: 18.5%
- inhibition at 320 µM (stock) (HUFEC): 8.5%

SMILES: CCCCCCC1CC[C@@H]2C(C(=O)OC)=CO[C@@H](OC(=O)NC)[C@H]12 (stereo partly shown) [I-300]
- inhibition at 320 µM (stock) [1]: 14.6%
- inhibition at 320 µM (stock) (HUFEC): 8%

SMILES: CNC(=O)O[C@@H]1OC=C(C(=O)OC)[C@H]2CC=C(CO)C12 (stereo in doubt) [I-315, (1S,4aS,7aR)-7-(hydroxy-methyl)-1-(methylcarbamoyloxy)-1,4a,5,7a-tetrahydrocyclopenta [c] pyrane-4-carboxylic acid methylester]
- inhibition at 320 µM (stock) [1]: 8.6%
- inhibition at 320 µM (stock) (HUFEC): 36.4%

SMILES: COC(=O)C1=CO[C@@H](OC(=O)NCCc2c[nH]c3ccccc23)[C@@H]2C(C)=CC[C@H]12 [I-115]
- inhibition at 320 µM (stock) [1]: 6.8%
- inhibition at 320 µM (stock) (HUFEC): 3.1%

SMILES: COC(=O)C1=CO[C@@H](OC(=O)N2CCOCC2)[C@@H]2C(C)=CC[C@H]12 [I-85]
- inhibition at 320 µM (stock) [1]: 15.6%
- inhibition at 320 µM (stock) (HUFEC): 31%

SMILES: COC(=O)C1=CO[C@@H](OC(=O)NC(=O)CCl)[C@@H]2C(C)=CC[C@H]12 [I-152]
- inhibition at 320 µM (stock) [1]: 51%
- inhibition at 320 µM (stock) (HUFEC): 33.7%

SMILES: C[C@]12O[C@H]1C[C@@H]1C(C(=O)O)=CO[C@@H](OC(=O)NCCCl)[C@@H]12 [I-67]
- TFA (inhibition rate, %) [1]: 19.7%
- CMA Inhibition rate (%) (HUFEC): 29.5%

SMILES: COC(=O)C1=CO[C@@H](OC(=O)NCC(C)C)[C@H]2[C@@H]1CC[C@@H]2C [I-190]
- inhibition at 320 µM (stock) [1]: 12.8%
- inhibition at 320 µM (stock) (HUFEC): 21.8%

SMILES: COC(=O)C1=CO[C@@H](OC(=O)NC2CC2)[C@@H]2C(C)=CC[C@H]12 [I-113]
- inhibition at 320 µM (stock) [1]: 7.9%
- inhibition at 320 µM (stock) (HUFEC): 34.4%

SMILES: CNC(=O)O[C@@H]1OC=C(C(=O)N2CCN(CCO)CC2)[C@H]2CC=C(C)[C@@H]12 [I-309]
- inhibition at 320 µM (stock) [1]: 5.2%
- inhibition at 320 µM (stock) (HUFEC): 48%

SMILES: C[C@@]12O[C@@H]1C[C@@H]1C(C(=O)O)=CO[C@@H](OC(=O)NCCCl)[C@@H]12 [I-69]
- inhibition at 320 µM (stock) [1]: 18%
- inhibition at 320 µM (stock) (HUFEC): 18.8%

SMILES: COC(=O)C1=CO[C@@H](OC(=O)N(C)C)[C@H]2[C@@H]1CC[C@@H]2C [I-239]
- inhibition at 320 µM (stock) [1]: 5.7%
- inhibition at 320 µM (stock) (HUFEC): 7.8%

SMILES: COC(=O)C1=CO[C@@H](OC(=O)NCc2cccc(F)c2)[C@@H]2C(C)=CC[C@H]12 [I-127]
- inhibition at 320 µM (stock) [1]: 5.3%
- inhibition at 320 µM (stock) (HUFEC): 5.3%

SMILES: CCOC(=O)CCCNC(=O)O[C@@H]1OC=C(C(=O)OC)[C@H]2CC[C@H](C)[C@@H]12 [I-237]
- inhibition at 320 µM (stock) [1]: 7.8%
- inhibition at 320 µM (stock) (HUFEC): 6.9%

SMILES: COC(=O)C1=CO[C@@H](OC(=O)Nc2ccc(F)cc2)[C@H]2[C@@H]1CC[C@@H]2C [I-264]
- inhibition at 320 µM (stock) [1]: 29.2%
- inhibition at 320 µM (stock) (HUFEC): 6.7%

SMILES: COC(=O)C1=CO[C@@H](OC(=O)Nc2cccc(C(C)=O)c2)[C@@H]2C(C)=CC[C@H]12 [I-171]
- inhibition at 320 µM (stock) [1]: 5.8%
- inhibition at 320 µM (stock) (HUFEC): 3%

SMILES: CNC(=O)O[C@@H]1OC=C(C(=O)O)[C@H]2CC=C(C)[C@@H]12 [I-313]
- TFA (inhibition rate, %) [1]: 27.0%
- CMA Inhibition rate (%) (HUFEC): 60.2%

SMILES: CCCCCCC1CC[C@@H]2C(C(=O)OC)=COC[C@H]12 (stereo partly shown) [I-294]
- inhibition at 320 µM (stock) [1]: 7.8%
- inhibition at 320 µM (stock) (HUFEC): 4.5%
